{"source": "paper PMC10447287", "about": "“Optimisation of Pharmaceutical Cocrystal Dissolution Performance through a Synergistic Precipitation Inhibition” (Pharmaceutical Research, 2023)", "key": {"[1]": {"assay": "Equilibrium solubility of FFA in DDW and PBS in the absence and presence of a predissolved polymer or a combination", "type": "physicochemical", "experimental": "The FFA solubility was determined by suspending an excess amount of crystalline materials of FFA I in small vials with 20 mL of a selected dissolution medium (i.e., DDW or PBS pH 4.5) in the absence and presence of a predissolved single polymer and a combination. The detailed polymers and their corresponding concentrations were 0.2 mg/mL of PVP-VA, 1 mg/mL of PEG and 0.2 mg/mL of SLP, which were based on the previous study and the solubility curve obtained in the preliminary study in Figure S5 in the supporting materials. All of the suspensions were kept at 37 ± 0.5°C in a water bath with a shaking rate of 150 rpm for 24 h. Each of the supernatants was separated from excess solids in solution by centrifugation at 13,000 RPM for 1 min in an MSB 010.CX2.5 centrifuge (MSE Ltd., London, U.K.). Subsequently, the supernatant was diluted using ethanol, and the FFA concentration was determined using HPLC. The solid residues retrieved from the tests were dried for 24 h at ambient temperature and then analysed by PXRD. Each of the experiments was conducted in triplicate, and data were reported as an average concentration. Additionally, the FFA solubility in PBS pH 6.8 at 37 ± 0.5°C was also measured in triplicate. The solids were scanned by D2 phaser diffractometer (Bruker U.K. Limited, Coventry, UK) with […] radiation operating at voltage of 30 kV and current of 10 mA. The scanning angle ranged from 2°-40° of 2θ. The scanning time per step was 0.4 s. The scan step size was 0.02° of 2θ."}, "[2]": {"assay": "Particle size distribution of sieved powders", "type": "physicochemical", "conditions": "sieved particles < 250 μm", "experimental": "All samples (i.e., FFA, FFA-NIC cocrystal and FFA-TP cocrystal) used in the dissolution tests were slightly ground by a mortar and pestle and sieved by a 60-mesh sieve (below 250 μm) to reduce the influence of particle size on the dissolution rates. The particle size distributions of the test samples were measured using a SYNC Analyzer (MICROTRAC Retsch GmbH, Hann, Germany). The particle size distributions (D10, D50, D90 and mean particle size) of the solid particles were compared. The data were analysed by the Microtrac FLEX software (12.0.0.1)."}, "[3]": {"assay": "Dissolution tests of powders in DDW with predissolved polymer or combination (USP type II paddle)", "type": "physicochemical", "conditions": "for solid residues after dissolution tests (PXRD): DDW in the absence or presence of predissolved polymers; for FFA concentration in solution after 4 h / FFA DPP (dissolution performance parameter): DDW; for FFA concentration in solution after 4 h: no polymer, powder dissolution; for FFA DPP (dissolution performance parameter): 0-4 h, reference same powder in DDW", "experimental": "In vitro dissolution tests were performed with a USP type II paddle apparatus (DT 126 light, Erweka GmbH, Germany) at 37 ± 0.5°C with a paddle speed of 50 rpm in 400 mL of DDW in the absence and presence of a predissolved polymer (i.e., 0.2 mg/mL of PVP-VA, 1 mg/mL of PEG, 0.2 mg/mL of SLP) or a combination of two polymers (i.e., 0.2 mg/mL PVP-VA + 1 mg/mL PEG, […]).\n71.7 mg of FFA-NIC cocrystal powders with the equivalent of 50 mg FFA I powders were used in each of the dissolution tests. Samples of 1 ± 0.1 mL were withdrawn from the dissolution vessel at the predefined time points of 5, 10, 15, 30, 60, 120, 180 and 240 min. The supernatant of each of the samples was separated from the excess solids by centrifugation at 13,000 RPM for 1 min in an MSE Micro Centaur. HPLC was used to determine the concentrations of FFA and NIC in solution. Solid residues obtained from the experiments were dried at room temperature and analysed by PXRD. All experiments were repeated in triplicate.\nFor comparison, the above dissolution tests were also repeated using 50 mg of pure FFA I powders and 82.0 mg of FFA-TP cocrystal powders.\nDPP was used to evaluate the dissolution profile of the test powders in comparison to a reference system, which is defined as,4 DPP=AUCC(t)-AUCCR(t)/AUCCR(t)×100% where AUCC(t) is the area under the curve (AUC) of a dissolution profile C(t) , indicating the amount of drug dissolved is maintained over the period of the dissolution time from 0 to t, and AUCCR(t) is the AUC of a reference dissolution profile CR(t) .\nThe solids were scanned by D2 phaser diffractometer (Bruker U.K. Limited, Coventry, UK) with […] radiation operating at voltage of 30 kV and current of 10 mA. The scanning angle ranged from 2°-40° of 2θ. The scanning time per step was 0.4 s. The scan step size was 0.02° of 2θ."}, "[4]": {"assay": "Ionisation constants of flufenamic acid", "type": "physicochemical", "conditions": "at pH 4.5"}, "[5]": {"set-up": "method as in doi:10.1007/s10953-010-9642-6", "conditions": "cited from earlier work"}, "[6]": {"conditions": "predissolved PVP-VA (0.2 mg/mL)"}, "[7]": {"conditions": "predissolved SLP (0.2 mg/mL) + PVP-VA (0.2 mg/mL)"}}, "data": [{"smiles": "O=C(O)c1ccccc1Nc1cccc(C(F)(F)F)c1", "note": "[FFA, Flufenamic acid]", "values": [{"measurement": "solubility at 24 h", "setting": "[1]; DDW, 37 °C, aqueous with cosolvent or surfactant or cyclodextrin, thermodynamic from solid, DDW, predissolved PEG (1 mg/mL) + PVP-VA (0.2 mg/mL), 37°C", "result": "20.9 ± 5.35", "unit": "µg/mL"}, {"measurement": "solubility at 24 h", "setting": "[1]; DDW, 37 °C, aqueous with cosolvent or surfactant or cyclodextrin, thermodynamic from solid, DDW, predissolved SLP (0.2 mg/mL) + PVP-VA (0.2 mg/mL), 37°C", "result": "119 ± 3.3", "unit": "µg/mL"}, {"measurement": "solubility at 24 h", "setting": "[1]; DDW, 37 °C, aqueous with cosolvent or surfactant or cyclodextrin, thermodynamic from solid, predissolved PEG (1 mg/mL)", "result": "17.8 ± 1.72", "unit": "µg/mL"}, {"measurement": "solubility at 24 h", "setting": "[1]; DDW, 37 °C, aqueous with cosolvent or surfactant or cyclodextrin, thermodynamic from solid, predissolved PVP-VA (0.2 mg/mL)", "result": "12 ± 1.4", "unit": "µg/mL"}, {"measurement": "solubility at 24 h", "setting": "[1]; DDW, absence of polymer, 37°C", "result": "10.1 ± 0.79", "unit": "µg/mL"}, {"measurement": "solubility at 24 h", "setting": "[1]; DDW, predissolved SLP (0.2 mg/mL), 37°C", "result": "111 ± 16.2", "unit": "µg/mL"}, {"measurement": "solubility at 24 h", "setting": "[1]; PBS pH 4.5, 37 °C, pH 4.5, aqueous buffer, thermodynamic from solid, PBS pH 4.5, absence of polymer, 37°C", "result": "18.3 ± 2.39", "unit": "µg/mL"}, {"measurement": "solubility at 24 h", "setting": "[1]; PBS pH 4.5, 37 °C, pH 4.5, aqueous with cosolvent or surfactant or cyclodextrin, thermodynamic from solid, PBS pH 4.5, predissolved PEG (1 mg/mL) + PVP-VA (0.2 mg/mL), 37°C", "result": "11.4 ± 0.22", "unit": "µg/mL"}, {"measurement": "solubility at 24 h", "setting": "[1]; PBS pH 4.5, 37 °C, pH 4.5, aqueous with cosolvent or surfactant or cyclodextrin, thermodynamic from solid, PBS pH 4.5, predissolved PVP-VA (0.2 mg/mL), 37°C", "result": "11 ± 1.32", "unit": "µg/mL"}, {"measurement": "solubility at 24 h", "setting": "[1]; PBS pH 4.5, 37 °C, pH 4.5, aqueous with cosolvent or surfactant or cyclodextrin, thermodynamic from solid, PBS pH 4.5, predissolved SLP (0.2 mg/mL) + PVP-VA (0.2 mg/mL), 37°C", "result": "41.1 ± 4.2", "unit": "µg/mL"}, {"measurement": "solubility at 24 h", "setting": "[1]; PBS pH 4.5, 37 °C, pH 4.5, aqueous with cosolvent or surfactant or cyclodextrin, thermodynamic from solid, PBS pH 4.5, predissolved SLP (0.2 mg/mL), 37°C", "result": "41.9 ± 2.5", "unit": "µg/mL"}, {"measurement": "solubility at 24 h", "setting": "[1]; PBS pH 4.5, pH 4.5, PBS pH 4.5, predissolved PEG (1 mg/mL), 37°C", "result": "9.01 ± 0.26", "unit": "µg/mL"}, {"measurement": "solubility", "setting": "[1]; PBS pH 6.8, 37 °C, pH 6.8, aqueous buffer, thermodynamic from solid, PBS pH 6.8, absence of polymer, 37°C", "result": "741.1 ± 6.27", "unit": "µg/mL"}, {"measurement": "solid form of residues after solubility tests (PXRD)", "setting": "[1]; after 24 h in various media", "result": "remained the form I"}, {"measurement": "D10", "setting": "[2]", "result": 5.19, "unit": "μm"}, {"measurement": "D50", "setting": "[2]", "result": 13.58, "unit": "μm"}, {"measurement": "D90", "setting": "[2]", "result": 84.86, "unit": "μm"}, {"measurement": "Mean particle size", "setting": "[2]", "result": 31.71, "unit": "μm"}, {"measurement": "solid residues after dissolution tests (PXRD)", "setting": "[3]", "result": "no phase transformation"}, {"measurement": "FFA concentration in solution after 4 h", "setting": "[3]", "result": 4.99, "unit": "µg/mL"}, {"measurement": "FFA DPP (dissolution performance parameter)", "setting": "[3]; [6]", "result": -24, "unit": "%"}, {"measurement": "FFA DPP (dissolution performance parameter)", "setting": "[3]; [7]", "result": 50, "unit": "%"}, {"measurement": "FFA DPP (dissolution performance parameter)", "setting": "[3]; predissolved SLP (0.2 mg/mL)", "result": 30, "unit": "%"}, {"measurement": "fraction in the neutral form", "setting": "[4]", "result": "more than 75%"}, {"measurement": "isoelectric point pH", "setting": "[5]", "result": "3.88 ± 0.03"}, {"measurement": "pKa1 (basic group)", "setting": "[5]", "result": "2.92 ± 0.01"}, {"measurement": "pKa2 (acidic group)", "setting": "[5]", "result": "4.84 ± 0.04"}]}, {"smiles": "Cn1c(=O)c2[nH]cnc2n(C)c1=O.O=C(O)c1ccccc1Nc1cccc(C(F)(F)F)c1", "note": "[FFA-TP cocrystal]", "values": [{"measurement": "D10", "setting": "[2]", "result": 5.25, "unit": "μm"}, {"measurement": "D50", "setting": "[2]", "result": 12.32, "unit": "μm"}, {"measurement": "D90", "setting": "[2]", "result": 56.64, "unit": "μm"}, {"measurement": "Mean particle size", "setting": "[2]", "result": 23.92, "unit": "μm"}, {"measurement": "solid residues after dissolution tests (PXRD)", "setting": "[3]", "result": "the same as the starting materials"}, {"measurement": "FFA concentration in solution after 4 h", "setting": "[3]", "result": 8.35, "unit": "µg/mL"}, {"measurement": "FFA DPP (dissolution performance parameter)", "setting": "[3]; predissolved PEG (1 mg/mL) + PVP-VA (0.2 mg/mL)", "result": 12, "unit": "%"}, {"measurement": "FFA DPP (dissolution performance parameter)", "setting": "[3]; predissolved PEG (1 mg/mL)", "result": 24, "unit": "%"}, {"measurement": "FFA DPP (dissolution performance parameter)", "setting": "[3]; [6]", "result": -17, "unit": "%"}, {"measurement": "FFA DPP (dissolution performance parameter)", "setting": "[3]; [7]", "result": 23, "unit": "%"}, {"measurement": "FFA DPP (dissolution performance parameter)", "setting": "[3]; predissolved SLP (0.2 mg/mL)", "result": 3, "unit": "%"}]}]}
